Measured values reported in ChEMBL document CHEMBL1134083, “Discovery of a nuclease-resistant, non-natural dinucleotide that inhibits HIV-1 integrase” (Bioorg Med Chem Lett, 2001).

How the values were obtained:
[1] = molecular target: T1, Human immunodeficiency virus type 1 integrase (Human immunodeficiency virus 1, UniProt Q7ZJM1); assay: Inhibitory concentration required against recombinant wild type HIV integrase by reproducible assay (Strand transfer)
[2] = molecular target: T1, Human immunodeficiency virus type 1 integrase; assay: Inhibitory concentration required against recombinant wild type HIV integrase by reproducible assay (3' processing)

T1 sequence (Q7ZJM1 whole entry): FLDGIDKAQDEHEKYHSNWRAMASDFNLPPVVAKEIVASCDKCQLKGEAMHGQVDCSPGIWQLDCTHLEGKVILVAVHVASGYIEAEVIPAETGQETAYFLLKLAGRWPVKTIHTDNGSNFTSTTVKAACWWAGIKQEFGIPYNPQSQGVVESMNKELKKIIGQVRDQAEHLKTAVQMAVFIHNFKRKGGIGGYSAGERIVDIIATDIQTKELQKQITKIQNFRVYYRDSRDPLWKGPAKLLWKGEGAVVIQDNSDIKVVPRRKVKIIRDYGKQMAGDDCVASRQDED

IC50 [1]: 5.9 µM
IC50 [2]: 7.5 µM
SMILES: Nc1ccn([C@H]2C[C@H](OP(=O)(O)OC[C@H]3OC[C@@H](n4ccc(=O)[nH]c4=O)[C@@H]3O)[C@@H](COP(=O)(O)O)O2)c(=O)n1
